Measured values from ChEMBL document CHEMBL1201861, “Genomics of Drug Sensitity in Cancer screening data, Wellcome Trust Sanger Institute”.

Columns and labels:
Experiment in all cases: cells
[1] = test system: SK-PN-DW; format: functional, cell-based, Homo sapiens; details: Homo sapiens, SK-PN-DW;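 also: growth inhibition measured with a viability assay on these cells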
Description: SANGER: Inhibition of human SK-PN-DW cell growth in a cell viability assay.

[2] = test system: L-363; format: functional, cell-based, Homo sapiens; details: Homo sapiens, L-363
Description: SANGER: Inhibition of human L-363 cell growth in a cell viability assay.

[3] = test system: LAMA-84; format: functional, cell-based, Homo sapiens; details: Homo sapiens, LAMA-84;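 also: growth inhibition of LAMA-84 cells, read out with a cell viability assay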
Description: SANGER: Inhibition of human LAMA-84 cell growth in a cell viability assay.

[4] = test system: TK-10; format: functional, cell-based, Homo sapiens; details: Homo sapiens, TK-10;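 also: growth inhibition of TK-10 cells, read out in a cell viability assay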
Description: SANGER: Inhibition of human TK10 cell growth in a cell viability assay.

[5] = test system: ES4; format: functional, cell-based, Homo sapiens; details: Homo sapiens, ES4;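 also: growth inhibition of human ES4 cells, read out by a cell viability assay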
Description: SANGER: Inhibition of human ES4 cell growth in a cell viability assay.

[6] = test system: LB771-HNC; format: functional, cell-based; details: Homo sapiens;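 also: growth inhibition of LB771-HNC human cells, read out with a cell viability assay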
Description: SANGER: Inhibition of human LB771-HNC cell growth in a cell viability assay.

[7] = test system: OCI-AML2; format: functional, cell-based, Homo sapiens; details: Homo sapiens, OCI-AML2;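 also: growth inhibition of OCI-AML2 cells, read out with a cell viability assay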
Description: SANGER: Inhibition of human OCI-AML2 cell growth in a cell viability assay.

[8] = test system: HCC1187; format: functional, cell-based, Homo sapiens; details: Homo sapiens, HCC1187;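 also: growth inhibition of HCC1187 cells, read out with a cell viability assay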
Description: SANGER: Inhibition of human HCC1187 cell growth in a cell viability assay.

[9] = test system: CAS-1; format: functional, cell-based, Homo sapiens; details: Homo sapiens, CAS-1;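 also: growth inhibition of CAS-1 cells, measured with a cell viability assay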
Description: SANGER: Inhibition of human CAS-1 cell growth in a cell viability assay.

[10] = test system: SCC-15; format: functional, cell-based, Homo sapiens; details: Homo sapiens, SCC-15;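 also: growth inhibition of SCC-15 cells, read out with a cell viability assay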
Description: SANGER: Inhibition of human SCC-15 cell growth in a cell viability assay.

[11] = test system: MZ1-PC; format: functional, cell-based, Homo sapiens; details: Homo sapiens, MZ1-PC;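 also: cell viability assay measuring growth inhibition of human MZ1-PC cells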
Description: SANGER: Inhibition of human MZ1-PC cell growth in a cell viability assay.

[12] = test system: NCI-H2126; format: functional, cell-based, Homo sapiens; details: Homo sapiens, NCI-H2126;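 also: growth inhibition of the cancer cell line, determined with a cell viability readout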
Description: SANGER: Inhibition of human NCI-H2126 cell growth in a cell viability assay.

[13] = test system: SK-MEL-2; format: functional, cell-based, Homo sapiens; details: Homo sapiens, SK-MEL-2;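 also: growth inhibition of human SK-MEL-2 cells measured with a cell viability assay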
Description: SANGER: Inhibition of human SK-MEL-2 cell growth in a cell viability assay.

[14] = test system: RH-1; format: functional, cell-based, Homo sapiens; details: Homo sapiens, RH-1;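 also: growth inhibition of human RH-1 cells, read out with a cell viability assay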
Description: SANGER: Inhibition of human RH-1 cell growth in a cell viability assay.

[15] = test system: LU-139; format: functional, cell-based, Homo sapiens; details: Homo sapiens, LU-139
Description: SANGER: Inhibition of human LU-139 cell growth in a cell viability assay.

[16] = test system: 697; format: functional, cell-based, Homo sapiens; details: Homo sapiens
Description: SANGER: Inhibition of human 697 cell growth in a cell viability assay.

[17] = test system: RPMI-8866; format: functional, cell-based, Homo sapiens; details: Homo sapiens, RPMI-8866
Description: SANGER: Inhibition of human RPMI-8866 cell growth in a cell viability assay.

[18] = test system: A3-KAW; format: functional, cell-based, Homo sapiens; details: Homo sapiens, A3-KAW;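 also: growth inhibition of human A3-KAW cells, read out with a cell viability assay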
Description: SANGER: Inhibition of human A3-KAW cell growth in a cell viability assay.

[19] = test system: LS-123; format: functional, cell-based, Homo sapiens; details: Homo sapiens, LS-123
Description: SANGER: Inhibition of human LS-123 cell growth in a cell viability assay.

[20] = test system: no-10; format: functional, cell-based, Homo sapiens; details: Homo sapiens;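 also: growth inhibition of no-10 cells, read out with a cell viability assay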
Description: SANGER: Inhibition of human no-10 cell growth in a cell viability assay.

[21] = test system: DJM-1; format: functional, cell-based, Homo sapiens; details: Homo sapiens, DJM-1;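 also: growth inhibition of human DJM-1 cells, read out by a cell viability assay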
Description: SANGER: Inhibition of human DJM-1 cell growth in a cell viability assay.

[22] = test system: DEL; format: functional, cell-based, Homo sapiens; details: Homo sapiens, DEL;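 also: growth inhibition of the human DEL cell line, read out with a cell viability assay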
Description: SANGER: Inhibition of human DEL cell growth in a cell viability assay.

[23] = test system: EOL1; format: functional, cell-based, Homo sapiens; details: Homo sapiens, EOL1;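 also: growth inhibition of EoL-1 cells, read out by a cell viability assay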
Description: SANGER: Inhibition of human EoL-1-cell cell growth in a cell viability assay.

[24] = test system: MOLT-4; format: functional, cell-based, Homo sapiens; details: Homo sapiens, MOLT-4;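 also: growth inhibition of MOLT-4 cells, determined with a cell viability readout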
Description: SANGER: Inhibition of human MOLT-4 cell growth in a cell viability assay.

[25] = test system: J-RT3-T3-5; format: functional, cell-based, Homo sapiens; details: Homo sapiens, J-RT3-T3-5;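 also: cell viability assay measuring growth inhibition of human J-RT3-T3-5 cells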
Description: SANGER: Inhibition of human J-RT3-T3-5 cell growth in a cell viability assay.

[26] = test system: GAK; format: functional, cell-based, Homo sapiens; details: Homo sapiens, GAK;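 also: cell growth inhibition read out by a cell viability assay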
Description: SANGER: Inhibition of human GAK cell growth in a cell viability assay.

[27] = test system: SF-126; format: functional, cell-based, Homo sapiens; details: Homo sapiens, SF-126;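 also: growth inhibition of human SF126 cells, read out with a cell viability assay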
Description: SANGER: Inhibition of human SF126 cell growth in a cell viability assay.

[28] = test system: LB2518-MEL; format: functional, cell-based; details: Homo sapiens;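 also: growth inhibition of human LB2518-MEL cells, measured with a cell viability assay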
Description: SANGER: Inhibition of human LB2518-MEL cell growth in a cell viability assay.

[29] = test system: BT-474; format: functional, cell-based, Homo sapiens; details: Homo sapiens, BT-474
Description: SANGER: Inhibition of human BT-474 cell growth in a cell viability assay.

[30] = test system: NCI-H1299; format: functional, cell-based; details: Homo sapiens;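 also: growth inhibition of human NCI-H1299 cells, read out by a cell viability assay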
Description: SANGER: Inhibition of human NCI-H1299 cell growth in a cell viability assay.

[31] = test system: MMAC-SF; format: functional, cell-based; details: Homo sapiens;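 also: growth inhibition of human MMAC-SF cells, read out with a cell viability assay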
Description: SANGER: Inhibition of human MMAC-SF cell growth in a cell viability assay.

[32] = test system: K562; format: functional, cell-based, Homo sapiens; details: Homo sapiens, K562
Description: SANGER: Inhibition of human K-562 cell growth in a cell viability assay.

[33] = test system: TE-1; format: functional, cell-based, Homo sapiens; details: Homo sapiens, TE-1;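 also: growth inhibition of the human TE-1 cell line, read out with a cell viability assay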
Description: SANGER: Inhibition of human TE-1 cell growth in a cell viability assay.

[34] = test system: OMC-1; format: functional, cell-based, Homo sapiens; details: Homo sapiens, OMC-1;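 also: growth inhibition of the OMC-1 cell line, measured by a cell viability assay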
Description: SANGER: Inhibition of human OMC-1 cell growth in a cell viability assay.

[35] = test system: HT-144; format: functional, cell-based, Homo sapiens; details: Homo sapiens, HT-144
Description: SANGER: Inhibition of human HT-144 cell growth in a cell viability assay.

[36] = test system: GI-1; format: functional, cell-based, Homo sapiens; details: Homo sapiens, GI-1;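 also: growth inhibition of human GI-1 cells, measured with a cell viability readout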
Description: SANGER: Inhibition of human GI-1 cell growth in a cell viability assay.

[37] = test system: IST-MEL1; format: functional, cell-based, Homo sapiens; details: Homo sapiens, IST-MEL1;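 also: growth inhibition of the cell line, read out with a cell viability assay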
Description: SANGER: Inhibition of human IST-MEL1 cell growth in a cell viability assay.

[38] = test system: SH-4; format: functional, cell-based; details: Homo sapiens;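 also: growth inhibition of SH-4 cells, read out with a cell viability assay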
Description: SANGER: Inhibition of human SH-4 cell growth in a cell viability assay.

[39] = test system: HT; format: functional, cell-based, Homo sapiens; details: Homo sapiens, HT
Description: SANGER: Inhibition of human HT cell growth in a cell viability assay.

[40] = test system: OCUB-M; format: functional, cell-based; details: Homo sapiens;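 also: growth inhibition of the cancer cell line, read out through a cell viability assay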
Description: SANGER: Inhibition of human OCUB-M cell growth in a cell viability assay.

[41] = test system: RKO; format: functional, cell-based, Homo sapiens; details: Homo sapiens, RKO;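 also: growth inhibition of human RKO cells, read out with a cell viability assay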
Description: SANGER: Inhibition of human RKO cell growth in a cell viability assay.

[42] = test system: SHP77; format: functional, cell-based, Homo sapiens, SHP-77; details: Homo sapiens, SHP77;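 also: growth inhibition of human SHP-77 cells measured by a cell viability assay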
Description: SANGER: Inhibition of human SHP-77 cell growth in a cell viability assay.

[43] = test system: LB2241-RCC; format: functional, cell-based, Homo sapiens; details: Homo sapiens, LB2241-RCC;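 also: cell viability assay measuring how strongly the cultured human renal carcinoma line is prevented from growing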
Description: SANGER: Inhibition of human LB2241-RCC cell growth in a cell viability assay.

[44] = test system: ES1; format: functional, cell-based, Homo sapiens; details: Homo sapiens, ES1;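 also: growth inhibition of ES1 cells, read out with a cell viability assay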
Description: SANGER: Inhibition of human ES1 cell growth in a cell viability assay.

[45] = test system: SW684; format: functional, cell-based, Homo sapiens; details: Homo sapiens, SW684; read-out: IC50;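 also: growth inhibition of human SW684 cells, measured by a cell viability assay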
Description: SANGER: Inhibition of human SW684 cell growth in a cell viability assay.

[46] = test system: U-266; format: functional, cell-based, Homo sapiens; details: Homo sapiens, U-266
Description: SANGER: Inhibition of human U-266 cell growth in a cell viability assay.

[47] = test system: COLO-684; format: functional, cell-based, Homo sapiens; details: Homo sapiens, COLO-684
Description: SANGER: Inhibition of human COLO-684 cell growth in a cell viability assay.

[48] = test system: SW 962; format: functional, cell-based, Homo sapiens; details: Homo sapiens, SW 962;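 also: growth inhibition of human SW962 cells, read out by a cell viability assay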
Description: SANGER: Inhibition of human SW962 cell growth in a cell viability assay.

[49] = test system: A704; format: functional, cell-based; details: Homo sapiens;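 also: growth inhibition of human A704 cells, read out with a cell viability assay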
Description: SANGER: Inhibition of human A704 cell growth in a cell viability assay.

O=C1NC(=O)c2c1c(-c1ccccc1Cl)cc1[nH]c3ccc(O)cc3c21
IC50 [1]: > 2 µM | IC50 [2]: 1.53 µM | IC50 [3]: > 2 µM | IC50 [4]: > 2 µM | IC50 [5]: 0.924 µM | IC50 [6]: > 2 µM | IC50 [7]: > 2 µM | IC50 [8]: > 2 µM | IC50 [9]: > 2 µM | IC50 [10]: > 2 µM | IC50 [11]: > 2 µM | IC50 [12]: > 2 µM | IC50 [13]: > 2 µM | IC50 [14]: > 2 µM | IC50 [15]: > 2 µM | IC50 [16]: 0.431 µM | IC50 [17]: > 2 µM | IC50 [18]: 0.516 µM | IC50 [19]: > 2 µM | IC50 [20]: > 2 µM | IC50 [21]: > 2 µM | IC50 [22]: 0.485 µM | IC50 [23]: > 2 µM | IC50 [24]: > 2 µM | IC50 [25]: 1.58 µM | IC50 [26]: > 2 µM | IC50 [27]: > 2 µM | IC50 [28]: > 2 µM | IC50 [29]: > 2 µM | IC50 [30]: > 2 µM | IC50 [31]: > 2 µM | IC50 [32]: > 2 µM | IC50 [33]: > 2 µM | IC50 [34]: > 2 µM | IC50 [35]: > 2 µM | IC50 [36]: > 2 µM | IC50 [37]: > 2 µM | IC50 [38]: 1.65 µM | IC50 [39]: > 2 µM | IC50 [40]: > 2 µM | IC50 [41]: > 2 µM | IC50 [42]: > 2 µM | IC50 [43]: 0.394 µM | IC50 [44]: > 2 µM | IC50 [45]: > 2 µM | IC50 [46]: > 2 µM | IC50 [47]: > 2 µM | IC50 [48]: > 2 µM

O=C(NCCCNc1nc(Nc2cccc(NC(=O)N3CCCC3)c2)ncc1I)c1cccs1 [BX-795]
IC50 [1]: > 5 µM | IC50 [2]: 1.18 µM | IC50 [3]: 1.77 µM | IC50 [4]: > 5 µM | IC50 [5]: > 5 µM | IC50 [6]: > 5 µM | IC50 [7]: > 5 µM | IC50 [8]: 2.9 µM | IC50 [9]: 3.02 µM | IC50 [10]: > 5 µM | IC50 [11]: > 5 µM | IC50 [12]: > 5 µM | IC50 [13]: 4.02 µM | IC50 [14]: 1.7 µM | IC50 [16]: 1.02 µM | IC50 [17]: > 5 µM | IC50 [18]: 0.731 µM | IC50 [19]: > 5 µM | IC50 [20]: > 5 µM | IC50 [21]: > 5 µM | IC50 [22]: 2.76 µM | IC50 [49]: > 5 µM | IC50 [24]: 1.03 µM | IC50 [25]: > 5 µM | IC50 [26]: > 5 µM | IC50 [27]: 2.44 µM | IC50 [28]: > 5 µM | IC50 [29]: > 5 µM | IC50 [30]: > 5 µM | IC50 [31]: > 5 µM | IC50 [32]: > 5 µM | IC50 [33]: > 5 µM | IC50 [34]: > 5 µM | IC50 [35]: > 5 µM | IC50 [36]: > 5 µM | IC50 [37]: > 5 µM | IC50 [38]: > 5 µM | IC50 [39]: > 5 µM | IC50 [40]: > 5 µM | IC50 [41]: > 5 µM | IC50 [42]: > 5 µM | IC50 [43]: 2.69 µM | IC50 [44]: 1.75 µM | IC50 [45]: > 5 µM | IC50 [46]: > 5 µM | IC50 [47]: > 5 µM | IC50 [48]: 2.34 µM
